Data as given in the NIST ThermoML archive (doi:10.1016/j.jct.2019.03.035).
Numbers after ± are expanded uncertainties.

Experiment: molar heat capacity at constant pressure; xn = mol fraction of the nth substance listed
Conditions: 100 kPa, Liquid, DSC, x1 = 0.53

N#Cc1ccccc1 [benzonitrile] + CCCCCCCCCC
Conditions	molar heat capacity at constant pressure [J/K/mol]
281.74 K	261.8 ± 10
281.89 K	260.4 ± 10
282.04 K	262.8 ± 10
282.19 K	264 ± 10
282.34 K	264.4 ± 10
282.48 K	263.4 ± 10
282.63 K	264 ± 10
282.78 K	263.3 ± 10
282.93 K	263.9 ± 10
283.08 K	266.3 ± 10
283.23 K	265.2 ± 10
283.38 K	266.7 ± 10
283.52 K	266.3 ± 10
283.67 K	268.2 ± 10
283.82 K	266.5 ± 10
283.97 K	267.5 ± 10
284.12 K	266.6 ± 10
284.26 K	265.9 ± 10
284.41 K	266.6 ± 10
284.56 K	268 ± 10
284.71 K	266.6 ± 10
284.86 K	268.5 ± 10
285.01 K	265.8 ± 10
285.16 K	269.9 ± 10
285.3 K	270.2 ± 10
285.45 K	268.9 ± 10
285.6 K	269.8 ± 10
285.75 K	271.8 ± 10
285.9 K	271.1 ± 10
286.05 K	270.5 ± 10
286.19 K	273.2 ± 11
286.34 K	273.4 ± 11
286.49 K	278.6 ± 11
286.64 K	283.9 ± 11
286.79 K	282.2 ± 11
286.94 K	285.9 ± 11
287.09 K	285.2 ± 11
287.23 K	307.6 ± 13
287.38 K	254 ± 12
287.53 K	250.3 ± 9.7
287.68 K	248.6 ± 9.6
287.83 K	246.7 ± 9.6
287.98 K	247.4 ± 9.6
288.12 K	245.8 ± 9.5
288.27 K	246 ± 9.5
288.42 K	245.6 ± 9.5
288.57 K	244.9 ± 9.5
288.72 K	244.8 ± 9.5
288.87 K	244.5 ± 9.5
289.01 K	244.3 ± 9.5
289.16 K	243.6 ± 9.4
289.31 K	244.2 ± 9.5
289.46 K	243.9 ± 9.4
289.61 K	244.1 ± 9.5
289.76 K	243.4 ± 9.4
289.9 K	243.5 ± 9.4
290.05 K	243.5 ± 9.4
290.2 K	243.2 ± 9.4
290.35 K	243.1 ± 9.4
290.5 K	243.2 ± 9.4
290.65 K	243.1 ± 9.4
290.83 K	243 ± 9.4
290.98 K	241.8 ± 9.4
291.13 K	243 ± 9.4
291.28 K	243.4 ± 9.4
291.43 K	242.8 ± 9.4
291.57 K	242.5 ± 9.4
291.72 K	242.7 ± 9.4
291.87 K	242.8 ± 9.4
292.02 K	242.4 ± 9.4
292.17 K	242.1 ± 9.4
292.32 K	241.7 ± 9.4
292.46 K	242.5 ± 9.4
292.61 K	242.1 ± 9.4
292.76 K	241.7 ± 9.4
292.91 K	242.6 ± 9.4
293.06 K	242 ± 9.4
293.21 K	242.1 ± 9.4
293.36 K	242.4 ± 9.4
293.5 K	241.7 ± 9.4
293.65 K	242.3 ± 9.4
293.8 K	242.2 ± 9.4
293.95 K	242.1 ± 9.4
294.1 K	241.7 ± 9.4
294.25 K	241.9 ± 9.4
294.39 K	241.8 ± 9.4
294.54 K	242.1 ± 9.4
294.69 K	242.1 ± 9.4
294.84 K	242.3 ± 9.4
294.99 K	241.7 ± 9.4
295.14 K	242.2 ± 9.4
295.29 K	242.1 ± 9.4
295.43 K	241.7 ± 9.4
295.58 K	242 ± 9.4
295.73 K	242.1 ± 9.4
295.88 K	242.8 ± 9.4
296.03 K	242.1 ± 9.4
296.18 K	242.8 ± 9.4
296.32 K	242.2 ± 9.4
296.47 K	241.8 ± 9.4
296.62 K	241.1 ± 9.3
297.05 K	242.4 ± 9.4
297.34 K	242.5 ± 9.4
297.62 K	242.5 ± 9.4
297.91 K	242.4 ± 9.4
298.19 K	242.5 ± 9.4
298.47 K	242.7 ± 9.4
298.76 K	242.6 ± 9.4
299.04 K	242.7 ± 9.4
299.32 K	242.8 ± 9.4
299.61 K	242.9 ± 9.4
299.89 K	242.9 ± 9.4
300.18 K	243 ± 9.4
300.46 K	243.1 ± 9.4
300.74 K	243 ± 9.4
301.03 K	243 ± 9.4
301.31 K	243.1 ± 9.4
301.6 K	243.2 ± 9.4
301.88 K	243.2 ± 9.4
302.16 K	243.3 ± 9.4
302.45 K	243.4 ± 9.4
302.73 K	243.5 ± 9.4
303.01 K	243.5 ± 9.4
303.3 K	243.6 ± 9.4
303.58 K	243.7 ± 9.4
303.87 K	243.7 ± 9.4
304.15 K	243.8 ± 9.4
304.43 K	243.9 ± 9.4
304.72 K	243.9 ± 9.4
305 K	244.1 ± 9.5
305.29 K	244.1 ± 9.5
305.57 K	244 ± 9.5
305.85 K	244.2 ± 9.5
306.14 K	244.3 ± 9.5
306.42 K	244.3 ± 9.5
306.7 K	244.4 ± 9.5
306.99 K	244.5 ± 9.5
307.27 K	244.6 ± 9.5
307.56 K	244.6 ± 9.5
307.84 K	244.7 ± 9.5
308.12 K	244.9 ± 9.5
308.41 K	244.8 ± 9.5
308.69 K	244.9 ± 9.5
308.98 K	245.1 ± 9.5
309.26 K	245 ± 9.5
309.54 K	245.1 ± 9.5
309.83 K	245.2 ± 9.5
310.11 K	245.4 ± 9.5
310.39 K	245.5 ± 9.5
310.68 K	245.5 ± 9.5
310.96 K	245.5 ± 9.5
311.25 K	245.7 ± 9.5
311.53 K	245.7 ± 9.5
311.81 K	245.8 ± 9.5
312.1 K	245.9 ± 9.5
312.38 K	246 ± 9.5
312.67 K	246 ± 9.5
312.95 K	246.1 ± 9.5
313.23 K	246.3 ± 9.5
313.52 K	246.2 ± 9.5
313.8 K	246.5 ± 9.5
314.08 K	246.5 ± 9.5
314.37 K	246.6 ± 9.6
314.65 K	246.5 ± 9.5
314.94 K	246.7 ± 9.6
315.22 K	246.8 ± 9.6
315.5 K	246.9 ± 9.6
315.79 K	246.9 ± 9.6
316.07 K	247 ± 9.6
316.36 K	247.1 ± 9.6
316.64 K	247.3 ± 9.6
316.92 K	247.4 ± 9.6
317.21 K	247.5 ± 9.6
317.49 K	247.5 ± 9.6
317.77 K	247.6 ± 9.6
318.06 K	247.7 ± 9.6
318.34 K	247.7 ± 9.6
318.63 K	247.8 ± 9.6
318.91 K	248 ± 9.6
319.19 K	248.1 ± 9.6
319.48 K	248.2 ± 9.6
319.76 K	248.2 ± 9.6
320.05 K	248.3 ± 9.6
320.33 K	248.4 ± 9.6
320.61 K	248.5 ± 9.6
320.9 K	248.5 ± 9.6
321.18 K	248.6 ± 9.6
321.46 K	248.7 ± 9.6
321.75 K	248.9 ± 9.6
322.03 K	249 ± 9.6
322.32 K	249 ± 9.6
322.6 K	249.1 ± 9.6
322.88 K	249.3 ± 9.7
323.17 K	249.3 ± 9.7
323.45 K	249.5 ± 9.7
323.74 K	249.5 ± 9.7
324.02 K	249.6 ± 9.7
324.3 K	249.7 ± 9.7
324.59 K	249.9 ± 9.7
324.87 K	250.1 ± 9.7
325.16 K	250.2 ± 9.7
325.44 K	250.1 ± 9.7
325.72 K	250.1 ± 9.7
